{"source": "patent US20120225132A1", "about": "“Methods for Increasing the Kinetic Activity of Alcohol, Water and Other Liquids, so as to Render the Liquids More Capable of Enhancing the Alternative Cellular Energy Pathway in the Prevention and Therapy of Diseases” (priority 2011, published 2012)", "tested_on": "ACE pathway", "assay": "Clinical evaluation of ethanol solutions (with neutral red dye and UV illumination) by the parent of an autistic child", "assay_type": "in vivo", "details": "standardized protocol", "data": [{"compound": "CCO", "note": "[unprocessed ethanol, ethanol]", "values": [{"measurement": "clinical response of the child with autism as judged by the parent", "value": "still effective"}]}]}
